Reference: ChEMBL document CHEMBL1201862, “PubChem BioAssay data set” (2004)
Where “and” joins values, the source holds several entries; their conditions need not be identical. Equal entries are not always repeated.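 Compound exposure: 48 hours, 5 concentrations, 96-well plates. At the GI50, growth is halved.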 Calls of active or inactive are those of the source. Cut-off read from the data, not from the text of the source: active = GI50 up to about 1.1 µM and inactive = higher.

Legend:
Assay in all cases: NCI-60 cell line screen, 48 h
[1] = tested on: CCRF-CEM
[2] = tested on: SF-539
[3] = tested on: SNB-78
[4] = tested on: K562
[5] = tested on: HCT-15
[6] = tested on: IGROV-1
[7] = tested on: NCI-H522
[8] = tested on: SR
[9] = tested on: HCC 2998
[10] = tested on: MOLT-4
[11] = tested on: ACHN
[12] = tested on: KM-20L2
[13] = tested on: A498
[14] = tested on: OVCAR-3
[15] = tested on: HOP-62
[16] = tested on: SK-MEL-5
[17] = tested on: SF-295
[18] = tested on: EKVX
[19] = tested on: HOP-92
[20] = tested on: DMS-114
[21] = tested on: RXF 631
[22] = tested on: SNB-19
[23] = tested on: DMS-273
[24] = tested on: SK-OV-3
[25] = tested on: UO-31
[26] = tested on: SW-620
[27] = tested on: A549
[28] = tested on: SF-268
[29] = tested on: COLO 205
[30] = tested on: LXFL 529
[31] = tested on: M19-MEL
[32] = tested on: Malme-3M
[33] = tested on: CAKI-1
[34] = tested on: M14
[35] = tested on: OVCAR-8
[36] = tested on: U-251
[37] = tested on: 786-0
[38] = tested on: SN12C
[39] = tested on: DU-145
[40] = tested on: BT-549
[41] = tested on: XF498
[42] = tested on: OVCAR-5
[43] = tested on: NCI/ADR-RES
[44] = tested on: NCI-H460
[45] = tested on: NCI-H226
[46] = tested on: T47D
[47] = tested on: MDA-N
[48] = tested on: MDA-MB-435
[49] = tested on: SK-MEL-28
[50] = tested on: TK-10
[51] = tested on: NCI-H23
[52] = tested on: HT-29
[53] = tested on: UACC-62
[54] = tested on: OVCAR-4
[55] = tested on: DLD-1
[56] = tested on: HL-60
[57] = tested on: RXF 393
[58] = tested on: SNB-75
[59] = tested on: KM12
[60] = tested on: LOX IMVI
[61] = tested on: RPMI-8226

With `CC(C)N(C(=O)C12C3C4C1C1C2C3C41C(N)=O)C(C)C` (stereo not drawn) the GI50 [1] was > 100 µM (inactive), the GI50 [2] was > 100 µM (inactive) and the GI50 [3] was > 100 µM (inactive). For the same compound, the GI50 [4] was > 100 µM (inactive), the GI50 [5] was > 100 µM and the GI50 [6] was > 100 µM (inactive). The GI50 [7] was > 100 µM (inactive), the GI50 [8] was > 100 µM (inactive) and the GI50 [9] was > 100 µM (inactive). For the same compound, the GI50 [10] was > 100 µM (inactive), the GI50 [11] was > 100 µM (inactive) and the GI50 [12] was > 100 µM (inactive). For the same compound, the GI50 [13] was > 100 µM (inactive), the GI50 [14] was > 100 µM (inactive) and the GI50 [15] was > 100 µM (inactive). For the same compound, the GI50 [16] was > 100 µM (inactive), the GI50 [17] was > 100 µM (inactive) and the GI50 [18] was > 100 µM (inactive). For the same compound, the GI50 [19] was > 100 µM (inactive), the GI50 [20] was > 100 µM (inactive) and the GI50 [21] was > 100 µM (inactive). The GI50 [22] was > 100 µM (inactive), the GI50 [23] was > 100 µM (inactive) and the GI50 [24] was > 100 µM (inactive). The GI50 [25] was > 100 µM (inactive), the GI50 [26] was > 100 µM (inactive) and the GI50 [27] was > 100 µM (inactive). The GI50 [28] was > 100 µM (inactive), the GI50 [29] was > 100 µM (inactive) and the GI50 [30] was > 100 µM (inactive). For the same compound, the GI50 [31] was > 100 µM (inactive), the GI50 [32] was > 100 µM (inactive) and the GI50 [33] was > 100 µM (inactive). For the same compound, the GI50 [34] was > 100 µM (inactive), the GI50 [35] was > 100 µM (inactive) and the GI50 [36] was > 100 µM (inactive). For the same compound, the GI50 [37] was > 100 µM (inactive) and the GI50 [38] was > 100 µM (inactive).

`O=C1C(CN(Cc2ccccc2)Cc2ccccc2)CCCC1CN(Cc1ccccc1)Cc1ccccc1` (stereo not drawn) was tested, and the GI50 [39] was > 100 µM (inactive), the GI50 [6] was 69.5 µM (inactive) and > 45.7 µM (inactive) and the GI50 [40] was > 100 µM (inactive) and > 79.8 µM (inactive). The GI50 [41] was 15.1 µM (inactive), the GI50 [9] was > 53.2 µM (inactive) and > 69.7 µM (inactive) and the GI50 [42] was 34.8 µM (inactive) and > 65.3 µM (inactive). For the same compound, the GI50 [13] was > 78.9 µM (inactive) and 41.5 µM (inactive), the GI50 [15] was > 62.1 µM (inactive) and the GI50 [43] was > 100 µM (inactive) and > 89.1 µM (inactive). For the same compound, the GI50 [16] was > 42.5 µM (inactive) and 66.8 µM (inactive), the GI50 [17] was 44.9 µM (inactive) and 35.9 µM (inactive) and the GI50 [19] was 16.7 µM (inactive) and 27.3 µM (inactive). For the same compound, the GI50 [21] was > 100 µM (inactive), the GI50 [22] was > 57 µM (inactive) and the GI50 [24] was > 61.1 µM (inactive) and 44.5 µM (inactive). For the same compound, the GI50 [44] was > 87.3 µM (inactive) and 43.9 µM (inactive), the GI50 [45] was > 68.7 µM (inactive) and 52.1 µM (inactive) and the GI50 [27] was > 54.5 µM (inactive). For the same compound, the GI50 [46] was > 100 µM (inactive), the GI50 [47] was > 76 µM (inactive) and the GI50 [48] was > 100 µM (inactive) and > 92.3 µM (inactive).

In the case of `O=C1C2c3[nH]c4ccccc4c3[C@@H]3CCCCC3C2C(=O)N1c1ccccc1` (stereo partly drawn), the GI50 [1] is reported as 26.5 µM (inactive), the GI50 [2] is reported as > 10 µM (inactive) and the GI50 [49] is reported as 18.2 µM (inactive). The GI50 [3] was 19.3 µM (inactive), the GI50 [4] was 20.9 µM (inactive) and the GI50 [50] was 28 µM (inactive). For the same compound, the GI50 [5] was 25.7 µM, the GI50 [6] was 23 µM (inactive) and the GI50 [51] was 19.5 µM (inactive). The GI50 [8] was 19.8 µM (inactive), the GI50 [9] was 19.3 µM (inactive) and the GI50 [42] was 16.8 µM (inactive). The GI50 [10] was 19 µM (inactive), the GI50 [11] was 25.4 µM (inactive) and the GI50 [52] was 19.7 µM (inactive). The GI50 [53] was 16.6 µM (inactive), the GI50 [13] was 28.6 µM (inactive) and the GI50 [14] was 15.4 µM (inactive). For the same compound, the GI50 [54] was 20.5 µM (inactive), the GI50 [55] was 26.2 µM (inactive) and the GI50 [16] was 17.9 µM (inactive). For the same compound, the GI50 [17] was 21.1 µM (inactive), the GI50 [18] was 15.3 µM (inactive) and the GI50 [56] was 20.3 µM (inactive). The GI50 [20] was 22.1 µM (inactive), the GI50 [21] was 14.8 µM (inactive) and the GI50 [22] was 36.1 µM (inactive). The GI50 [23] was 17.3 µM (inactive), the GI50 [57] was 16.7 µM (inactive) and the GI50 [24] was 26.9 µM (inactive). For the same compound, the GI50 [44] was 17.8 µM (inactive), the GI50 [45] was 21 µM (inactive) and the GI50 [58] was 27.2 µM (inactive). For the same compound, the GI50 [25] was 17.3 µM (inactive), the GI50 [26] was 19.1 µM (inactive) and the GI50 [27] was 28.8 µM (inactive). For the same compound, the GI50 [59] was 19.2 µM (inactive), the GI50 [28] was 18.7 µM (inactive) and the GI50 [60] was 15.8 µM (inactive). The GI50 [29] was 19.1 µM (inactive), the GI50 [30] was 17.6 µM (inactive) and the GI50 [31] was 19.1 µM (inactive). For the same compound, the GI50 [32] was 20.6 µM (inactive), the GI50 [34] was 15 µM (inactive) and the GI50 [35] was 26.4 µM (inactive). The GI50 [36] was 14.4 µM (inactive), the GI50 [61] was 17.5 µM (inactive) and the GI50 [37] was 18.9 µM (inactive). The GI50 [38] was 17.8 µM (inactive).
